Results reported in patent US9969742B2, “Imidazotriazinone compounds” (Ironwood Pharmaceuticals, Inc., priority 2012, dated 2018).
Read-outs that look alike come from different tables or passages of the source.

Legend:
Assay type in all cases: biochemical
PDE1A = biological target: T1, PDE1A (Homo sapiens, UniProt P54750); assay: Phosphodiesterase enzyme screening assay, PDE1A
T1 construct: purchased Reaction Biology Corporation, Malvern, Pa
From the text: (§1) Compounds of the invention were screened against PDE1A, PDE1B, PDE2A, PDE3A, PDE3B, PDE4A1A, PDE4B1, PDE4D3, PDE5A1, PDE6C, PDE7A, PDE8A1, PDE9A2, PDE10A2 AND PDE11A isoforms of the phosphodiesterase enzyme to determine activity and overall selectivity through comparative analysis. […] Where 8-methoxy-IBMX and Zaprinast were used as reference inhibitors.
(§2) The phosphodiesterase enzyme isoforms were obtained from a commercial retailer (Reaction Biology Corporation, Malvern, Pa.) for use in the instant screening assay.
(§3) The analysis was completed using the Caliper LabChip 3000 and a 12-sipper LabChip. LabChip assays are separations-based, meaning that the product and substrate are electrophoretically separated, thereby minimizing interferences and yielding the highest data quality available on any screening platform. […] High Z′ values, few false positives, few false negatives and analytical quality reproducibility are the reasons cited for the increasing reliance on the LabChip assays.
(§4) The off-chip incubation mobility-shift phosphodiesterase assay uses a microfluidic chip to measure the conversion of a fluorescent cyclic AMP substrate to a 5′-AMP product, or a cyclic GMP substrate to a 5′-GMP product. The reaction mixture, from a microtiter plate well, is introduced through a capillary sipper onto the chip, where the fluorescent substrate and product are separated by electrophoresis and detected via laser-induced fluorescence. […] The precision of microfluidics allows researchers to detect subtle interactions between drug candidates and therapeutic targets.
(§5) Reactions were carried out in 100 mM HEPES (pH 7.5), 5 mM MgCl2, 1 mM DTT, 0.003% Brij, 4.0 μM cGMP substrate. The reaction was started by addition of cGMP or cAMP and incubated for 1 hour at R.T. The reaction was terminated by the addition of stop buffer containing 100 mM HEPES (pH 7.5), 15 mM EDTA, 0.015% Brij-35, 5% DMSO. Cyclic AMP/GMP substrate and 5′-AMP/5′-GMP product were separated by charge using electrophoretic mobility shift. Product formed was compared to control wells to determine inhibition or enhancement of enzyme activity.
(§6) Data points were averages of quadruplicate wells and error bars represented the SEM for each point.

PDE9A2 = biological target: T2, PDE9A2 (Homo sapiens, UniProt O76083); assay: Phosphodiesterase enzyme screening assay, PDE9A2; settings: 4.0 μM cGMP substrate, 1 hour at R.T., read-out: Band (PDE9A2 IC50)
T2 construct: purchased Reaction Biology Corporation, Malvern, Pa
Summary of the method: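 Read-out was electrophoretic mobility-shift separation on chip of fluorescent cyclic nucleotide from 5′-AMP/5′-GMP, with inhibition or enhancement judged against control wells (quadruplicate means). Reactions lasted 1 h at RT in HEPES pH 7.5 buffer with MgCl2, DTT and Brij plus 4.0 μM cGMP substrate, then were halted with EDTA stop buffer.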

PDE1B = biological target: T3, PDE1B (Homo sapiens, UniProt Q01064); assay: Phosphodiesterase enzyme screening assay, PDE1B
T3 construct: purchased Reaction Biology Corporation, Malvern, Pa
From the text: as §1, §2, §3, §4, §5, §6

[1] = Table 1, ratio of IC50 values, value greater than 1 indicates greater selectivity for PDE9A2

T3 sequence (Q01064 whole entry): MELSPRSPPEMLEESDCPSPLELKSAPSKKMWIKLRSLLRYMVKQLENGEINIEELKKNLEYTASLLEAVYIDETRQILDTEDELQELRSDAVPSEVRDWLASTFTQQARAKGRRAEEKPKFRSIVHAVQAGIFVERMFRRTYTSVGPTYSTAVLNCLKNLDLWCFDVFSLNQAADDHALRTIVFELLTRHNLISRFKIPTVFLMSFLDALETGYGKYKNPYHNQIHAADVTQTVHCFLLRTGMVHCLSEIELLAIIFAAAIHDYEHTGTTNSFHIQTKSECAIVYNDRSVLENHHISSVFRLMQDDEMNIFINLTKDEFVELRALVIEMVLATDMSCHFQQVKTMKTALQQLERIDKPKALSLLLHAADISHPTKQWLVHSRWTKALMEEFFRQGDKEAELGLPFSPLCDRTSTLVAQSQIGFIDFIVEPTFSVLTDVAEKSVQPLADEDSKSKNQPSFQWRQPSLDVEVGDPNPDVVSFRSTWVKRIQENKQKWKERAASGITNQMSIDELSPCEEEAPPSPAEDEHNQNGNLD
T2 sequence (O76083 1-533 isoform O76083-2): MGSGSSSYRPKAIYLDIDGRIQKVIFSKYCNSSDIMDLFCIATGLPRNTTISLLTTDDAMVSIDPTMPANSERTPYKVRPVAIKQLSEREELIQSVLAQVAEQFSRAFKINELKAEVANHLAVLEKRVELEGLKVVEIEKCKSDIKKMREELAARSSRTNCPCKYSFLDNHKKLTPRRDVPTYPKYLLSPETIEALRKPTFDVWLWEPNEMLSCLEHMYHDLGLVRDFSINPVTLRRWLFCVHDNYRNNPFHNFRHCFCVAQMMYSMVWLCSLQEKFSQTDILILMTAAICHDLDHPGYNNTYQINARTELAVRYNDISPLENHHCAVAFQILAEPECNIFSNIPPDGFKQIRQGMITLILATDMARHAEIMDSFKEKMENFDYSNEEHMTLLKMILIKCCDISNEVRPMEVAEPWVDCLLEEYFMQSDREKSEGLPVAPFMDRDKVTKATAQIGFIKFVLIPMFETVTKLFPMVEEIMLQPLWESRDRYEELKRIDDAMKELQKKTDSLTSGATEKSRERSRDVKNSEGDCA
T1 sequence (P54750 whole entry): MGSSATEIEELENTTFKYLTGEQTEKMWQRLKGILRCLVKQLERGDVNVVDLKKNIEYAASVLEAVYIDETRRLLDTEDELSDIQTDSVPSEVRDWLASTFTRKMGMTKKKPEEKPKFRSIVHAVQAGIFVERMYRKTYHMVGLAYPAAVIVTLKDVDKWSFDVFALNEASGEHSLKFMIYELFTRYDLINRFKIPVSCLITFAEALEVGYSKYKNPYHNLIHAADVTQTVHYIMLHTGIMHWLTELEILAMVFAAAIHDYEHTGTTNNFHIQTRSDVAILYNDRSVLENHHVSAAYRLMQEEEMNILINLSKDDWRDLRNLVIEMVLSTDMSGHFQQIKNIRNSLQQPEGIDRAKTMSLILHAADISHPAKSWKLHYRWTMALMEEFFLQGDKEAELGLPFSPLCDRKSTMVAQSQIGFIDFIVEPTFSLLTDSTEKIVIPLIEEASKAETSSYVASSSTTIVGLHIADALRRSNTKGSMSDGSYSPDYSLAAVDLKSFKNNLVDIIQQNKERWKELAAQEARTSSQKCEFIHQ

SMILES | PDE1A selectivity (versus PDE9A2) (PDE1A; [1]) | IC50 (PDE9A2; Table 1, 10 concentrations) [nM] | PDE1B selectivity (versus PDE9A2) (PDE1B; [1]) | other results
C[C@@H]1CN(Cc2ncccn2)C[C@H]1c1nn2c(C3CCOCC3)ncc2c(=O)[nH]1 (relative stereo) [(+)-2-((3,4-trans)-4-, (+)-2-((3,4-trans)-4-methyl-1-(pyrimidin-2-ylmethyl)pyrrolidin-3-yl)-7-(tetrahydro-2H-pyran-4-yl)imidazo[5,1-f][1,2,4]triazin-4(3H)-one] |  |  |  | PDE1A selectivity (versus PDE9A2) (PDE1A; ratio of IC50 values, PDE1A versus PDE9A2, value greater than 1 = greater selectivity for PDE9A2): 214; IC50 (PDE9A2; Table 3): < 1000 nM; PDE1B selectivity (versus PDE9A2) (PDE1B; ratio of IC50 values, PDE1B versus PDE9A2, value greater than 1 = greater selectivity for PDE9A2): 456
C[C@@H]1CN(Cc2ccc3cccnc3c2)C[C@H]1c1nn2c(C3CCOCC3)ncc2c(=O)[nH]1 (relative stereo) [(+)-2-((3,4-trans)-4-methyl-1-(quinolin-7-ylmethyl)pyrrolidin-3-yl)-7-(tetrahydro-2H-pyran-4-yl)imidazo[5,1-f][1,2,4]triazin-4(3H)-one] | 5020 | < 1000 | 5180 | 
CC1CN(Cc2cccc(Cl)c2Cl)CC1c1nn2c(C3CCOCC3)ncc2c(=O)[nH]1 (single isomer, unassigned; (+)) [(+)-2-((3,4-trans)-1-(2,3-dichlorobenzyl)-4-methylpyrrolidin-3-yl)-7-(tetrahydro-2H-pyran-4-yl)imidazo[5,1-f][1,2,4]triazin-4(3H)-one] |  |  |  | PDE1A selectivity (versus PDE9A2) (PDE1A; ratio of IC50 values PDE1A / PDE9A2, value greater than 1 = greater selectivity for PDE9A2): 195; IC50 (PDE9A2): < 1000 nM; PDE1B selectivity (versus PDE9A2) (PDE1B; ratio of IC50 values PDE1B / PDE9A2, value greater than 1 = greater selectivity for PDE9A2): 199
CC1CN(Cc2ccc(Cl)cc2Cl)CC1c1nn2c(C3CCOCC3)ncc2c(=O)[nH]1 (single isomer, unassigned; (+)) [(+)-2-((3,4-trans)-1-(2,4-dichlorobenzyl)-4-methylpyrrolidin-3-yl)-7-(tetrahydro-2H-pyran-4-yl)imidazo[5,1-f][1,2,4]triazin-4(3H)-one] | 598 | < 1000 | 994 | 
CC1CN(Cc2cc(Cl)ccc2Cl)CC1c1nn2c(C3CCOCC3)ncc2c(=O)[nH]1 (single isomer, unassigned; (+)) [(+)-2-((3,4-trans)-1-(2,5-dichlorobenzyl)-4-methylpyrrolidin-3-yl)-7-(tetrahydro-2H-pyran-4-yl)imidazo[5,1-f][1,2,4]triazin-4(3H)-one] | 274 | < 1000 | 90 | 

Now from value to compound, other results behind:

PDE1A selectivity (versus PDE9A2) (PDE1A; [1]) | IC50 (PDE9A2; Table 1, 10 concentrations) [nM] | PDE1B selectivity (versus PDE9A2) (PDE1B; [1]) | SMILES | other results
159 | < 1000 | 218 | CC1CN(Cc2cccc(F)c2F)CC1c1nn2c(C3CCOCC3)ncc2c(=O)[nH]1 (single isomer, unassigned; (+)) [(+)-2-((3,4-trans)-1-(2,3-difluorobenzyl)-4-methylpyrrolidin-3-yl)-7-(tetrahydro-2H-pyran-4-yl)imidazo[5,1-f][1,2,4]triazin-4(3H)-one] | 
97 | < 1000 | 118 | CC1CN(Cc2cc(F)ccc2F)CC1c1nn2c(C3CCOCC3)ncc2c(=O)[nH]1 (single isomer, unassigned; (+)) [(+)-2-((3,4-trans)-1-(2,5-difluorobenzyl)-4-methylpyrrolidin-3-yl)-7-(tetrahydro-2H-pyran-4-yl)imidazo[5,1-f][1,2,4]triazin-4(3H)-one] | 
363 | < 1000 | 279 | CC1CN(Cc2ccccc2N(C)C)CC1c1nn2c(C3CCOCC3)ncc2c(=O)[nH]1 (single isomer, unassigned; (+)) [(+)-2-((3,4-trans)-1-(2-(dimethylamino)benzyl)-4-methylpyrrolidin-3-yl)-7-(tetrahydro-2H-pyran-4-yl)imidazo[5,1-f][1,2,4]triazin-4(3H)-one] | 
104 | < 1000 | 28 | CC1CN(Cc2ccccc2Br)CC1c1nn2c(C3CCOCC3)ncc2c(=O)[nH]1 (single isomer, unassigned; (+)) [(+)-2-((3,4-trans)-1-(2-bromobenzyl)-4-methylpyrrolidin-3-yl)-7-(tetrahydro-2H-pyran-4-yl)imidazo[5,1-f][1,2,4]triazin-4(3H)-one] | 
